Values of other authors as cited in paper PMC3349014 (Journal of the American Chemical Society, 2012).

Conditions: over 3 h

Row | Substance | Rat plasma levels after IV injection
1 | Ac-Im-Py-Py-γ-Im-Py-Py-β-Dp [compound 1035] | drop to low percent over 3 h
2 | Ac-Py-Py-β-Py-Im-Py-γ-Py-Py-Py-β-Im-Py-β-Dp [compound 1666] | drop to low percent over 3 h
